In patent US11236084B2, “Substituted azaindoline derivatives as NIK inhibitors” (Janssen Pharmaceutica NV, priority 2017, dated 2022) one finds IC50 data, which are given here for 35 compounds.

Experiment [1] has as its target recombinant human NF-kappaB-inducing kinase (NIK/MAP3K14) (Homo sapiens, UniProt Q99558). Nature of the experiment: Biological Assay B: inhibition of auto-phosphorylation of recombinant human NIK/MAP3K14 (AlphaScreen), performed at 2 locations. It counts as biochemical. Particulars: averaged values. The procedure, abridged: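 Run at two separate sites: 1 h, 25° C. reactions containing 0.2 nM GST-NIK, 25 microM ATP and compound (1% DMSO) in Tris pH 7.5/MgCl2 buffer. Phosphorylation detected via anti-phospho-IKK Ser176/180 antibody with AlphaScreen beads; IC50 fitted to % inhibition.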

Experiment [2] concerns P-IKKα levels in L363 (NIK translocated multiple myeloma) cells. Nature of the experiment: Biological Assay C: effect of compounds on P-IKKα levels in L363 (NIK translocated multiple myeloma) cells, performed at 2 locations. It counts as cell-based, human. Particulars: averaged values. The method, then:
Effect of Compounds on P-IKKα Levels in L363 (NIK Translocated Multiple Myeloma) Cells
All compounds tested were dissolved in DMSO and further dilutions were made in culture medium. Final DMSO concentration was 1% (v/v) in cell assays. The human L363 cells (ATCC) were cultured in RPMI 1640 medium supplemented with GlutaMax and 10% fetal calf serum (PAA). Cells were routinely maintained at densities of 0.2×10^6 cells per ml-1×10^6 cells per ml at 37° C. in a humidified 5% CO2 atmosphere. Cells were passaged twice a week splitting back to obtain the low density. Cells were seeded in 96 well plates (Nunc 167008) at 2×10^6 per ml media in a volume of 75 μl per well plus 25 μl […] recombinant human B-cell activating factor (BAFF/BLyS/TNFSF13B). Seeded cells were incubated at 37° C. in a humidified 5% CO2 atmosphere for 24 hr. Drugs and/or solvents were added (20 μl) to a final volume of 120 μl. Following 2 hr treatment plates were removed from the incubator and cell lysis was achieved by the addition of 30 μl 5× lysis buffer followed by shaking on a plate shaker at 4° C. for 10 min. At the end of this incubation lysed cells were centrifuged at 800×g for 20 min at 4° C. and the lysate was assessed for P-IKKα levels by sandwich immuno-assay carried out in anti-rabbit antibody coated Mesoscale plates. Within an experiment, the results for each treatment were the mean of 2 replicate wells. For initial screening purposes, compounds were tested using an 8 point dilution curve (serial 1:3 dilutions). For each experiment, controls (containing MG132 and BAFF but no test drug) and a blank incubation (containing MG132 and BAFF and 1 μM ADS125117, a test concentration known to give full inhibition) were run in parallel. The blank incubation value was subtracted from all control and sample values. To determine the IC50 a sigmoidal curve was fitted to the plot of % inhibition of control P-IKKα levels versus Log10 compound concentration.
Assay C was performed at 2 different locations.
Data for the compounds of the invention in the above assays are provided in Table A (the values in Table are averaged values over all measurements on all batches of a compound; values as IC50 (nM)). (‘n.c.’ means not calculated: ‘Co.’ means compound)

Where [3] appears, read: location 1, AlphaScreen auto-phosphorylation, read-out: Assay B location 1 IC50.
[4] abbreviates: location 2, AlphaScreen auto-phosphorylation, read-out: Assay B location 2 IC50.
Setting [5] is: Homo sapiens, L-363, location 1, L363 cells, P-IKKα levels, read-out: Assay C location 1 IC50.
Setting [6] is: location 1, NIK auto-phosphorylation, AlphaScreen, read-out: Assay B location 1 IC50.
Setting [7] is: Homo sapiens, L-363, location 2, L363 cells, P-IKKα levels, read-out: Assay C location 2 IC50.
Setting [8] is: Homo sapiens, L-363, 2 h, location 1, P-IKKα levels in L363 cells, 2 hr treatment, read-out: Assay C location 1 IC50.

The structures appear in SMILES notation. pIC50: −log10 of the molar value. Where two headings read alike, the source gives them in different places.

Chain of recombinant human NF-kappaB-inducing kinase (NIK/MAP3K14) (Q99558 whole entry): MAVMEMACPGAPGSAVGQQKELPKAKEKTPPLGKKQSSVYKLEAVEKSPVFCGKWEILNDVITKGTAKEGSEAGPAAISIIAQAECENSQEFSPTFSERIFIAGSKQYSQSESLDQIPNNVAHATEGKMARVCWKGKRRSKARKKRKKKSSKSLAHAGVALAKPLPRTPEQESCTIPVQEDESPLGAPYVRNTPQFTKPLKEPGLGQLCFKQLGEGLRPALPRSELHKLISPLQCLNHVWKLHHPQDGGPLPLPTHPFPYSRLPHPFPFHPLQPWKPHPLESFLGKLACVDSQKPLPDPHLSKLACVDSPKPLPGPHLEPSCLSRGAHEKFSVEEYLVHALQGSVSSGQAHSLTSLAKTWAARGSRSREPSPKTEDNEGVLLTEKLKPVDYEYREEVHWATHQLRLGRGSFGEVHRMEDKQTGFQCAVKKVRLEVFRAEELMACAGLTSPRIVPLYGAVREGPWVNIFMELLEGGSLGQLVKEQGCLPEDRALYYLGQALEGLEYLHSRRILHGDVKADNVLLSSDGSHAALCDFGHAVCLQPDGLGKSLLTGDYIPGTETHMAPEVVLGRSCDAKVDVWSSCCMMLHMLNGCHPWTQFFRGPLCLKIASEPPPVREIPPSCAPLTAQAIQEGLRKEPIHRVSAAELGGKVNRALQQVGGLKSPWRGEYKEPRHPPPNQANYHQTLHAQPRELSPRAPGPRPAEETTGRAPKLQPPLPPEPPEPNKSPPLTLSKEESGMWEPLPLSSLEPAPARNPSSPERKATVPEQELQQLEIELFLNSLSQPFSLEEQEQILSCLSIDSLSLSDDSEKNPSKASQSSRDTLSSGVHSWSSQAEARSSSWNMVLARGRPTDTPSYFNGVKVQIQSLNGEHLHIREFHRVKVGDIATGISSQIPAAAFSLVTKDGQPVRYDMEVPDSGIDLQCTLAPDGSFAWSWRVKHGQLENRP

The term pIC50 denotes the negative decadic logarithm of the IC50, by convention in mol/L. For the compound `COc1cc(N2CC3(CCOCC3)C2)c(Cl)cc1Nc1nccc(-c2cnc3c(c2)C(C)(CO)CN3)n1` (single isomer, unassigned) [Compound 3S], the pIC50 was 8.17 in experiment [1] (setting [3]), 8.89 in experiment [1] (setting [4]) and 7.76 in experiment [2] (setting [5]).
As for `COc1cc(N2CCOCC2)c(C#N)cc1Nc1nccc(-c2cnc3c(c2)C(C)(CO)CN3)n1` (single isomer, unassigned) [Compound 4S], the values for the pIC50 in experiment [1] (setting [4]) and in experiment [2] (setting [5]) were 8.64 and about 6.82, respectively.
Turning to `CN(C)CCOc1cc(N2CCOCC2)c(Cl)cc1Nc1nccc(-c2cnc3c(c2)C(C)(CO)CN3)n1` (single isomer, unassigned) [Compound 272], the pIC50 in experiment [1] (setting [3]) is 6.82; in experiment [1] (setting [4]), 6.91; in experiment [2] (setting [5]), 5.04.
As for `COc1cc(N2CCC(O)CC2)c(Cl)cc1Nc1nccc(-c2cnc3c(c2)C(C)(CO)CN3)n1` (single isomer, unassigned) [Compound 343], the pIC50 in experiment [1] (setting [6]) was 7.72; in experiment [2] (location 1, P-IKKα levels in L363 cells, 2 hr treatment, read-out: Assay C location 1 IC50), about 5.13.
Consider `COc1cc(C(=O)NC2CCOCC2)ccc1Nc1ncc(F)c(-c2cnc3c(c2)C(C)(CO)CN3)n1` (centres unmarked) [Compound 2], for which the pIC50 in experiment [1] (setting [3]) was 8.26; in experiment [2] (setting [7]) it was 7.16.
For the compound `COc1cc(N2CCOCC2)c(C#N)cc1Nc1nccc(-c2cnc3c(c2)C(C)(CO)CN3)n1` (centres unmarked) [Compound 4], the pIC50 in experiment [1] (setting [3]) is 7.98; in experiment [1] (setting [4]), 8.54; in experiment [2] (setting [5]), 6.86.
For `COc1cc(C(=O)NC2CCOCC2)c(Cl)cc1Nc1nccc(-c2cnc3c(c2)C(C)(CO)CN3)n1` (centres unmarked) [Compound 8] the same measures were 8.34, 8.80 and 8.08.
For the compound `COc1cc(S(C)(=O)=O)c(F)cc1Nc1nccc(-c2cnc3c(c2)C(C)(CO)CN3)n1` (centres unmarked) [Compound 12], the pIC50 was 8.27 in experiment [1] (setting [3]), 8.80 in experiment [1] (setting [4]) and 7.57 in experiment [2] (setting [5]).
As to `COc1cc(N2CCN(C(C)C)CC2)c(Cl)cc1Nc1nccc(-c2cnc3c(c2)C(C)(CO)CN3)n1` (centres unmarked) [Compound 14], the pIC50 in experiment [1] (setting [3]) is about 8.52; in experiment [1] (setting [4]), 9.05; in experiment [2] (setting [5]), 7.71.
Turning to `CN1CCC(Oc2ccc(Cl)cc2Nc2nccc(-c3cnc4c(c3)C(C)(CO)CN4)n2)CC1` (centres unmarked) [Compound 15], the pIC50 in experiment [1] (setting [3]) was 8.07; in experiment [2] (setting [5]), 6.32.
As to `COc1cc(C(=O)N2CCC(OC)C2)ccc1Nc1nccc(-c2cnc3c(c2)C(C)(CO)CN3)n1` (centres unmarked) [Compound 136], the figures for the negative-log IC50 (pIC50) in experiment [1] (setting [4]), in experiment [2] (setting [5]) and in experiment [2] (setting [7]) were 8.48, 6.45 and 6.64, respectively.
The corresponding values for `COc1cc(C(=O)NC2CCOC2)ccc1Nc1nccc(-c2cnc3c(c2)C(C)(CO)CN3)n1` (centres unmarked) [Compound 137] are 8.30, 6.47 and 6.46.
Take `COc1cc(C(=O)N2CCCC2)ccc1Nc1nccc(-c2cnc3c(c2)C(C)(CO)CN3)n1` (centres unmarked) [Compound 138]: the pIC50 in experiment [1] (setting [4]) is 8.20; in experiment [2] (setting [7]), 6.63.
Regarding `COc1cc(C(=O)N2CCCCC2)ccc1Nc1nccc(-c2cnc3c(c2)C(C)(CO)CN3)n1` (centres unmarked) [Compound 139], the pIC50 in experiment [1] (setting [3]) is 8.16; in experiment [1] (setting [4]) it was 8.16; in experiment [2] (setting [5]), 6.78; in experiment [2] (setting [7]) it was 6.99.
For `CC1(CO)CNc2ncc(-c3ccnc(Nc4ccc(C(=O)NC5CCOCC5)cc4OC(F)F)n3)cc21` (centres unmarked) [Compound 140], the values for the pIC50 in experiment [1] (setting [4]) and in experiment [2] (setting [7]) were 8.35 and 5.97, respectively.
For `COc1cc(C(=O)N2CCCCCC2)ccc1Nc1nccc(-c2cnc3c(c2)C(C)(CO)CN3)n1` (centres unmarked) [Compound 141] the same measures were 7.99 and 6.83.
In the case of `COc1cc(C(=O)NC2CCCOCC2)ccc1Nc1nccc(-c2cnc3c(c2)C(C)(CO)CN3)n1` (centres unmarked) [Compound 142], the pIC50 was 7.87 in experiment [1] (setting [4]), 6.51 in experiment [2] (setting [5]) and 6.69 in experiment [2] (setting [7]).
In the case of `COc1cc(C(=O)N2CCN(C)CC2)ccc1Nc1nccc(-c2cnc3c(c2)C(C)(CO)CN3)n1` (centres unmarked) [Compound 143], the pIC50 in experiment [1] (setting [3]) is 7.77; in experiment [1] (setting [4]), 7.84; in experiment [2] (setting [7]), 6.65.
`COc1cc(CNC(C)=O)ccc1Nc1nccc(-c2cnc3c(c2)C(C)(CO)CN3)n1` (centres unmarked) [Compound 145]: the values for the pIC50 in experiment [1] (setting [4]) and in experiment [2] (setting [7]) were 8.14 and 6.49, respectively.
For the compound `COc1cc(C(=O)NC2CCOCC2)ccc1Nc1nccc(-c2cnc3c(c2)C(C)(CC#N)CN3)n1` (centres unmarked) [Compound 147], the figures for the pIC50 in experiment [1] (setting [4]) and in experiment [2] (setting [7]) were 8.39 and 7.28, respectively.
Consider `COc1cc(C(=O)N2CCC(OC)CC2)ccc1Nc1nccc(-c2cnc3c(c2)C(C)(CC#N)CN3)n1` (centres unmarked) [Compound 148], for which the pIC50 in experiment [1] (setting [4]) was 8.32; in experiment [2] (setting [7]) it was 6.80.
For `COc1cc(C(=O)N2CCCC(OC)CC2)ccc1Nc1nccc(-c2cnc3c(c2)C(C)(CO)CN3)n1` (centres unmarked) [Compound 150] the same measures were 8.27 and 6.98.
For `COc1ccccc1Nc1nccc(-c2cnc3c(c2)C(C)(CO)CN3)n1` (centres unmarked) [Compound 151], the pIC50 in experiment [1] (setting [4]) was 7.75; in experiment [2] (setting [5]), about 6.04; in experiment [2] (setting [7]), 6.17.
As to `COc1cc(C(=O)N(C)C)ccc1Nc1nccc(-c2cnc3c(c2)C(C)(CO)CN3)n1` (centres unmarked) [Compound 153], the values for the pIC50 in experiment [1] (setting [3]) and in experiment [2] (setting [7]) were 7.73 and 6.37, respectively.
Take `CN1CCC(Oc2ccccc2Nc2nccc(-c3cnc4c(c3)C(C)(CO)CN4)n2)CC1` (centres unmarked) [Compound 246]: the pIC50 in experiment [1] (setting [3]) is 7.51; in experiment [1] (setting [4]), 7.75; in experiment [2] (setting [5]), about 5.70.
The corresponding values for `COc1cc(N2CCN(C)CC2)c(Cl)cc1Nc1nccc(-c2cnc3c(c2)C(C)(CO)CN3)n1` (centres unmarked) [Compound 267] are 8.33, 9.30 and 7.54.
Consider `COc1cc(N2CC(OC)C2)c(Cl)cc1Nc1nccc(-c2cnc3c(c2)C(C)(CO)CN3)n1` (centres unmarked) [Compound 269], for which the pIC50 was 8.74 in experiment [1] (setting [4]) and 7.38 in experiment [2] (setting [5]).
Turning to `COc1cc(N2CCC(N(C)C)CC2)c(Cl)cc1Nc1nccc(-c2cnc3c(c2)C(C)(CO)CN3)n1` (centres unmarked) [Compound 277], the results for the pIC50 in experiment [1] (setting [3]), in experiment [1] (setting [4]) and in experiment [2] (setting [5]) were about 8.52, 9.40 and 7.63, respectively.
As to `COc1cc(C(=O)NC2CCOCC2)c(Cl)cc1Nc1nccc(-c2cnc3c(c2)C(C)(C)CN3)n1` [Compound 299], the pIC50 in experiment [1] (setting [3]) was 8.49; in experiment [1] (setting [4]), 9.05; in experiment [2] (setting [5]), 7.53.
For `COc1cc(N2CCC(O)CC2)c(Cl)cc1Nc1nccc(-c2cnc3c(c2)C(C)(CO)CN3)n1` (centres unmarked) [Compound 301] the same measures were 8.27, 8.96 and 7.63.
For the compound `COc1cc(S(C)(=O)=O)c(Cl)cc1Nc1nccc(-c2cnc3c(c2)C(C)(CO)CN3)n1` (centres unmarked) [Compound 331], the pIC50 in experiment [1] (setting [3]) is 8.19; in experiment [2] (setting [5]), 7.10.
On to `CC1(CO)CNc2ncc(-c3ccnc(Nc4ccccc4S(C)(=O)=O)n3)cc21` (centres unmarked) [Compound 334], for which the figures for the pIC50 in experiment [1] (setting [3]) and in experiment [2] (setting [5]) were 5.40 and under 5.00, respectively.
The corresponding values for `CC1(CO)CNc2ncc(-c3ccnc(Nc4cc(Cl)ccc4S(C)(=O)=O)n3)cc21` (centres unmarked) [Compound 335] are 6.57 and under 5.00.
As for `CN1CCC(Oc2ccc(Cl)cc2Nc2nccc(-c3cnc4c(c3)C(C)(C)CN4)n2)CC1` [Compound 338], the pIC50 in experiment [1] (setting [6]) was 7.72; in experiment [2] (setting [8]) it was 5.41.
As to `COc1cc(S(C)(=O)=O)c(F)cc1Nc1nccc(-c2cnc3c(c2)C(C)(C)CN3)n1` [Compound 342], the pIC50 is 8.10 in experiment [1] (setting [6]); 8.34 in experiment [1] (location 2, NIK auto-phosphorylation, AlphaScreen, read-out: Assay B location 2 IC50); 6.81 in experiment [2] (setting [8]).
